Experimental data reported in BindingDB's records for doi:10.1021/jm050524f (The Scripps Research Institute, 2005).

Columns and labels:
[1] = Inhibitory concentration against NADH ubiquinone oxidoreductase
[2] = Inhibitory concentration against NADH-ubiquinone oxidoreductase
[3] = target: Hypoxia-inducible factor 1-alpha (Homo sapiens, UniProt Q16665); assay: Effective concentration to inhibit production of hypoxia inducible factor 1-alpha protein
Sequence of Hypoxia-inducible factor 1-alpha (Q16665 whole entry): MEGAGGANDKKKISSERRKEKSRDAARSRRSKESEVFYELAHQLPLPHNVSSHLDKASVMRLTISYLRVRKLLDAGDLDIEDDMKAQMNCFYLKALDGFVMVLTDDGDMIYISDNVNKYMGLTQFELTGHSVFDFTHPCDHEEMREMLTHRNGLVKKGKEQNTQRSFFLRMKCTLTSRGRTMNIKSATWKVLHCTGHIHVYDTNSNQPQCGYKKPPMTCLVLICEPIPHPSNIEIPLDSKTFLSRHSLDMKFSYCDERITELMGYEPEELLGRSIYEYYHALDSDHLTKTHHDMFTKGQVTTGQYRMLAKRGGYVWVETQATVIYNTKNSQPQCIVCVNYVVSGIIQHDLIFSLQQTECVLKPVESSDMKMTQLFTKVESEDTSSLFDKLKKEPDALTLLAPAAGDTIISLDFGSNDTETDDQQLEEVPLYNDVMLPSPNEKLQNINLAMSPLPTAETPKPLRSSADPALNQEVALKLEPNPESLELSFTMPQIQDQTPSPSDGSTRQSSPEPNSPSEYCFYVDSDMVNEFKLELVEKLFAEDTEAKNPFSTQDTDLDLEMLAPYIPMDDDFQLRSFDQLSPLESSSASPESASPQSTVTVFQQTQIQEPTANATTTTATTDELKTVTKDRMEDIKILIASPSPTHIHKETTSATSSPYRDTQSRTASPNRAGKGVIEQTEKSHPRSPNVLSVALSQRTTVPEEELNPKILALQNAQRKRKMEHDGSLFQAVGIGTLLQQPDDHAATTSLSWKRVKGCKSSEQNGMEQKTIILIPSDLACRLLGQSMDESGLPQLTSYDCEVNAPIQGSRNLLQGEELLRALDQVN

Q: Which results are given for `COc1cc(COC(=O)c2ccc3c(c2)C=CC(C)(C)O3)cc(OC)c1OC` [2,2-Dimethyl-2H-chromene-6-carboxylic acid 3,4,5-trimethoxy-benzyl ester]?
A: IC50 [1]: 55 nM; IC50 [2]: 55 nM

Q: For `C=C(Cc1cc(OC)c(OC)c(OC)c1)c1ccc2c(c1)CCC(C)(C)O2` [2,2-Dimethyl-6-[1-(3,4,5-trimethoxy-benzyl)-vinyl]-chroman], which IC50 [1] is on record?
A: 18 nM

Q: And the IC50 [2]?
A: 18 nM

Q: With `COc1c(C(C)n2cnc3ncccc32)ccc2c1C=CC(C)(C)O2` (stereo not given) [1-[1-(5-Methoxy-2,2-dimethyl-2H-chromen-6-yl)-ethyl]-1H-imidazo[4,5-b]pyridine] as the compound, how does the EC50 [3] read?
A: 35000 nM
